Like-named read-outs stand apart in the source and are kept apart here.
Key:
[1] = tested on: green rice leafhoppers of the strain RN; test: Test Example 3: dust spray test (20 mesh metal gauze cylinder); format: in vivo, Nephotettix cincticeps; conditions: for death ratio (%), mixture with Compound No. 1 / death ratio (%), mixture with Compound No. 6* / death ratio (%), mixture with Compound No. 24* / death ratio (%), mixture with Compound No. 35* / death ratio (%), mixture with Compound No. 40* / death ratio (%), mixture with Compound No. 49* / death ratio (%), mixture with Compound No. 81* / death ratio (%), mixture with Compound No. 118* / death ratio (%), mixture with Carbofuran / death ratio (%), mixture with Methomyl: Table 9, RN; for death ratio (%), mixture with Compound No. 1: dust mixed with 1; for death ratio (%), mixture with Compound No. 6*: dust mixed with 6*; for death ratio (%), mixture with Compound No. 24*: dust mixed with 24*; for death ratio (%), mixture with Compound No. 35*: dust mixed with 35*; for death ratio (%), mixture with Compound No. 40*: dust mixed with 40*; for death ratio (%), mixture with Compound No. 49*: dust mixed with 49*; for death ratio (%), mixture with Compound No. 81*: dust mixed with 81*; for death ratio (%), mixture with Compound No. 118*: dust mixed with 118*; for death ratio (%), mixture with Carbofuran: dust mixed with Carbofuran; for death ratio (%), mixture with Methomyl: dust mixed with Methomyl; for Effect of individual compound (RN), death ratio (%) (Table 9): dust, compound alone, RN strain
Procedure: The insecticides in the form of dust were tested for insecticidal activity.
The test for insecticidal activity was performed by the following procedure. […] The dust of a test compound (pulverized by means of a shaking pulverizer made by Taira Kosakusho, Ltd.) was applied onto the tube contents at a prescribed rate by spraying from outside the metal gauze by means of a bell-jar duster. The dust of the test compound was prepared uniformly mixing 2 parts of the dust of the individual compound or 1 part each of the dusts of the mixture components (total 2 parts) and 98 parts of a carrier obtained by mixing talc and clay in equal volumes.

[2] = tested on: resistant green rice leafhoppers (R); conditions: 1440 min; for Insecticidal Activity R/S (resistant ratio): ratio of the resistant strain to the susceptible strain (LD50)
Procedure: (1) A 20-mg portion of a given test compound was weighed out and dissolved in 10 ml of acetone. The resultant solution was diluted at proper times with acetone.
(2) With a micro-syringe, the acetone solution of the test compound was topically applied to the thoracic region of female green rice leafhoppers at a fixed dose of 0.2 μl per head.
(3) The female green rice leafhoppers thus treated were placed in a plastic cup prepared in advance (measuring 7 cm in diameter and 3.5 cm in depth and containing rice seeds) and kept at a constant temperature of 26±1° C. After 24 hours' standing, the dead insects were counted.
In the case of a mixed insecticide, the LD50 was shown as a total dosage.

[3] = 2% dust, 250 mg, 24 hr, read-out: Mortality (%) after 24 hr., 250 mg Spray (Table 7)
[4] = 2% dust, 100 mg, 24 hr, read-out: Mortality (%) after 24 hr., 100 mg Spray (Table 7)

SMILES | death ratio (%), mixture with Compound No. 1 [1] | death ratio (%), mixture with Compound No. 6* [1] | death ratio (%), mixture with Compound No. 24* [1] | death ratio (%), mixture with Compound No. 35* [1] | death ratio (%), mixture with Compound No. 40* [1] | death ratio (%), mixture with Compound No. 49* [1] | death ratio (%), mixture with Compound No. 81* [1] | death ratio (%), mixture with Compound No. 118* [1] | death ratio (%), mixture with Carbofuran [1] | death ratio (%), mixture with Methomyl [1] | Effect of individual compound (RN), death ratio (%) (Table 9) [1] | Insecticidal Activity R/S (resistant ratio) [2] | other results
CCCCNC(=O)Oc1ccccc1OC(C)C [Compound 84] | 0% | 15.0% | 5.0% | 10.0% | 5.0% | 0% | 100% | 67.5% | 55.0% | 70.0% | 0% |  | 
CCCNC(=O)Oc1cccc(CC)c1 [Compound 31, 3-ethylphenyl-N-n-propylcarbamate] |  |  |  |  |  |  |  |  |  |  |  | 0.5 | 
CNC(=O)Oc1ccc(C)c(C)c1 [Compound 35, 3,4-dimethylphenyl-N-methylcarbamate, reference compound] |  |  |  |  |  |  |  |  |  |  |  | 4.7 | mortality at 100 mg/cylinder ([1]; 24 h, read-out: Mortality (%) after 24 hr., 100 mg Spray (Table 7)): 0%; mortality at 250 mg/cylinder ([1]; 24 h, read-out: Mortality (%) after 24 hr., 250 mg Spray (Table 7)): 0%; mortality at 100 mg/cylinder ([1]; 24 h, read-out: Mortality (%) after 24 hr., Spray Volume 100 mg): 0%; mortality at 250 mg/cylinder ([1]; 24 h, read-out: Mortality (%) after 24 hr., Spray Volume 250 mg): 0%
C=CCNC(=O)Oc1ccccc1OC(C)C [Compound 85, 2-isopropoxyphenyl-N-allylcarbamate] | 50.0% | 45.0% | 35.0% | 75.0% | 60.0% | 0% | 80.0% | 35.0% | 85.0% | 90.0% | 25.0% |  | 
CCNC(=O)Oc1ccccc1C(C)CC (stereo not drawn) [Compound 7, 2-sec-butylphenyl-N-ethylcarbamate] |  |  |  |  |  |  |  |  |  |  |  | 2.6 | 
CNC(=O)Oc1cccc2c1OC(C)(C)C2 [Carbofuran, 2,3dihydro-2,2-dimethyl-benzofuran-7-yl-N-methylcarbamate, reference compound] |  |  |  |  |  |  |  |  |  |  | 40.0% |  | 
CCCNC(=O)Oc1ccccc1OCC [Compound 80, 2-ethoxyphenyl-N-n-propylcarbamate] | 65.0% | 60.0% | 57.5% | 65.0% | 55.0% | 15.0% | 60.0% | 70.0% | 85.0% | 75.0% | 0% |  | 
C=CCNC(=O)Oc1ccccc1C(C)C [Compound 5, 2-isopropylphenyl-N-allylcarbamate] |  |  |  |  |  |  |  |  |  |  |  | 3.1 | 
C=CCNC(=O)Oc1ccccc1C(C)CC (stereo not drawn) [Compound 10, 2-sec-butylphenyl-N-allylcarbamate] |  |  |  |  |  |  |  |  |  |  |  | 4.3 | mortality at 250 mg/cylinder [1, 3]: 100%
CCNC(=O)Oc1ccc(C)c(C)c1 [Compound 36, 3,4-dimethylphenyl-N-ethylcarbamate] |  |  |  |  |  |  |  |  |  |  |  | 3.3 | mortality at 100 mg/cylinder [1, 4]: 55%; mortality at 250 mg/cylinder [1, 3]: 80%
C=CCNC(=O)Oc1cc(C)cc(C)c1 [Compound 44, 3,5-dimethylphenyl-N-allylcarbamate] |  |  |  |  |  |  |  |  |  |  |  | 0.9 | mortality at 100 mg/cylinder [1, 4]: 60%; mortality at 250 mg/cylinder [1, 3]: 80%
CNC(=O)ON=C(C)SC [Methomyl, 1(methylthio)ethylideneamino-N-methylcarbamate, reference compound] |  |  |  |  |  |  |  |  |  |  | 35.0% |  | 
CNC(=O)Oc1ccccc1OC(C)C [Compound 81, 2-isopropoxyphenyl-N-methylcarbamate, reference compound] | 0% | 5.0% | 0% | 15.0% | 20.0% | 0% | 10.0% | 57.5% | 30.0% | 35.0% | 0% |  | Effect of individual compound, LD50 (μ g/g) (Table 5-2) ([2]; compound alone): > 100 μ g/g
